These results are taken from patent US20240010655A1, “DIHYDROIMIDAZO PYRIMIDO PYRIMIDINONE COMPOUND” (priority 2019, published 2024).

Assay [1] relates to advanced solid tumors. The conditions noted are these: cited from earlier work.
Assay [2] has as its target Wee1 (h) (Homo sapiens, UniProt P30291). In words: Wee1(h) kinase activity experiment ([γ-33P]-ATP, filtermat, scintillation counting). The class given is biochemical. As to conditions: 10 μM ATP, 40 minutes at room temperature; read-out: IC50, inhibitory effect on Wee1 kinase activity. On the procedure: Determination of the Inhibitory Effect of Compounds on Wee1 Kinase Using Wee1(h) Kinase Activity Experiment
Wee1 (h) is incubated with 20 mM Tris/HCl pH 8.5, 0.2 mM EDTA, 500 μM […], 10 mM MgAcetate and 10 μM [γ-^33P]-ATP. Then 50 times the concentration of the testing compound in 100% DMSO was added until the final concentration was 10 μM, then mixed, and diluted to 10 concentrations in successive series according to the ratio of 1:3 and 1:10 respectively (the last concentration was DMSO negative control): 10 μM, 3 μM, 1 μM, 0.3 μM, 0.1 μM, 0.03 μM, 0.01 μM, 0.003 μM, 0.001 μM, 0 μM. The reaction is initiated by the addition of the Mg/ATP mix. After incubation for 40 minutes at room temperature, the reaction is stopped by the addition of phosphoric acid to a concentration of 0.5%. 10 μL of the reaction liquor is then spotted onto a P30 filtermat and washed four times in 0.425% phosphoric acid and once in methanol prior to drying and scintillation counting. Each compound sample is duplicated in duplicate. The negative control was the components except of Wee1 enzyme, and the positive control was the components of adding 30% phosphoric acid to terminate the reaction. Table 1 summarizes the inhibitory effects of compounds on Wee1 kinase activity (IC50).

The test system of assay [3] is LoVo cell. As to the kind of experiment: Inhibition of proliferation of LoVo cell, CCK-8 method. The class given is cell-based. The conditions noted are these: Homo sapiens, 72 h, CCK-8, 3 days, read-out: IC50, inhibitory effect on the proliferation of LoVo cell. On the procedure: Determination of the Inhibitory Effect of Compounds on the Proliferation of LoVo Cell Using CCK-8 Method
(§1) The cells were digested by trypsinase and centrifuged at 800 rpm for 5 minutes, the supernatant was discarded, and the residual was resuspended with fresh medium and counted. The cells were seeded into 96-well cell culture plate with a density of 6000 cells per well and incubated overnight in a 5% C02 incubator at 37° C. The stock solutions of test compounds were serially diluted to 8 concentrations by DMSO at the ratios of 1:3 and 1:10, respectively. The final concentration of compound was: 10 μM, 3.3 μM, 1 μM, 0.33 μM, 0.1 μM, 0.033 μM, 0.01 μM and 0 μM. 5 μL diluent of each concentration was added to 120 μL of medium (25 times diluted) and mixed by shaking. The overnight cell plates were taken and the culture medium was removed, 195 μL of fresh medium was added to each well, and 5 μL of diluted medium containing the corresponding concentration of the test compound was added respectively (the final concentration of DMSO is 1‰), and the culture plate was then placed in a 5% CO2 incubator at 37° C. for 3 days. After removing the original solution, 90 μL of fresh serum-free 1640 medium was added, then 10 μL of CCK-8 reagent was added to each well and continued incubation for 2 hours. The 96-well plates were placed in a multi-function reader to read the absorbance at the wavelength of 450/650 nm. Cell viability (%)=(ODcompound−ODbackground)/(ODDMSO−ODbackground)×100. GraphPad Prism 5.0 was used to analyze the data. The inhibitory activity of compounds on cell proliferation was plotted based on cell viability and the logarithm of compound concentration. The IC50 value was fitted by a sigmoidal dose response curve equation Y=100/(1+10^(Log C−Log IC50)), wherein C was the concentration of compound.
Table 2 summarizes the inhibitory effect data (IC50) of compounds on the proliferation of LoVo cell
(Formazan colour is commonly taken as a measure of viable cells.)

The test system of assay [4] is NCI-H1299 cell. As to the kind of experiment: Inhibition of proliferation of NCI-H1299 cell, CCK-8 method. The format is cell-based. The conditions noted are these: Homo sapiens, NCI-H1299, 72 h; CCK-8, 3 days; read-out: IC50, inhibitory effect on the proliferation of NCI-H1299 cell. As for the experimental part:
Determination of the Inhibitory Effect of Compounds on the Proliferation of NCI-H1299 Cell Using CCK-8 Method
as §1, with “1000” for “6000”, “CO2” for “C02”
Table 3 summarizes the inhibitory effect data (IC50) of compounds on the proliferation of NCI-H1299 cell.

Where [5] appears, read: 176 evaluable patients, AZD1775 alone or in combination with chemotherapy.

Chain of Wee1 (h) (P30291 whole entry): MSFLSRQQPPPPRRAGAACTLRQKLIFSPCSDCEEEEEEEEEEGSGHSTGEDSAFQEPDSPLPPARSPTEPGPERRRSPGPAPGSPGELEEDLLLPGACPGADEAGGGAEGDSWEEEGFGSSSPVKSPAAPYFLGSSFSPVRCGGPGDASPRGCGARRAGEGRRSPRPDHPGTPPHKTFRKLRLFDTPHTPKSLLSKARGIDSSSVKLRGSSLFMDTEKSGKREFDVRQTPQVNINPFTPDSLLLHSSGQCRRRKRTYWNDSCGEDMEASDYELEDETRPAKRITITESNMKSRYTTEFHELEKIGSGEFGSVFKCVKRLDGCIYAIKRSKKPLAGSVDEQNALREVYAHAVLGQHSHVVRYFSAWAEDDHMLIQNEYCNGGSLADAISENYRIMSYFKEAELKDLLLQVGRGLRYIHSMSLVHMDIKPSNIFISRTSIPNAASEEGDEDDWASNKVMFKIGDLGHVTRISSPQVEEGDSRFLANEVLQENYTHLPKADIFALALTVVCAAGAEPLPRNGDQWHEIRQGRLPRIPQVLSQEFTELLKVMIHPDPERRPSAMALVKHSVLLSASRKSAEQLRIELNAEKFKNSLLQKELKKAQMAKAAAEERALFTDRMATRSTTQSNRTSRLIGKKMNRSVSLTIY

As to `C=CCn1c(=O)c2cnc(Nc3ccc(N4CCN(C)CC4)cc3)nc2n1-c1cccc(C(C)(C)O)n1` [AZD1775], in assay [1] (setting [5]), the “patients with partial response” value was 10% and the “patients with stable disease as the best response” value is given as 53%. Besides, in assay [1] (TP53 mutation (n=19)), the “response rate in patients with TP53 mutation” value was 21%. Besides, the “response rate in TP53 wild-type patients” value in assay [1] (TP53 wild-type (n=33)) is reported as 12%.

With `Cc1cc(Nc2ncc3c(n2)N2CCN=C2N(c2c(Cl)cccc2Cl)C3=O)ccc1N1C[C@@H](C)N[C@@H](C)C1` [Example 1, 6-(2,6-dichlorophenyl)-2-((4-((3S,5R)-3,5-dimethylpiperazin-1-yl)-3-methylphenyl)amino)-8,9-dihydroimidazo[1,2-a]pyrimido[5,4-e]pyrimidin-5(6H)-one], the figures for the IC50 in assay [2], in assay [3] and in assay [4] were 37 nM, 126 nM and 71 nM, respectively.

Take `[2H]C([2H])([2H])N1[C@H](C)CN(c2ccc(Nc3ncc4c(n3)N3CCN=C3N(c3c(Cl)cccc3Cl)C4=O)cc2C)C[C@@H]1C` [Example 2, 6-(2,6-dichlorophenyl)-2-((4-((3S,5R)-3,5-dimethyl-4-(methyl-d3)piperazin-1-yl)-3-methylphenyl)amino)-8,9-dihydroimidazo[1,2-a]pyrimido[5,4-e]pyrimidin-5(6H)-one]: the IC50 in assay [2] was 21 nM; in assay [3], 158 nM; in assay [4], 123 nM.

With `C[C@@H]1CN(c2ccc(Nc3ncc4c(n3)N3CCN=C3N(c3c(Cl)cccc3Cl)C4=O)cc2Br)C[C@H](C)N1C` [Example 3, 2-((3-bromo-4-((3S,5R)-3,4,5-trimethylpiperazin-1-yl)phenyl)amino)-6-(2,6-dichlorophenyl)-8,9-dihydroimidazo[1,2-a]pyrimido[5,4-e]pyrimidin-5(6H)-one], the IC50 in assay [3] worked out at 219 nM; in assay [4], 382 nM.

Consider `Cc1cc(Nc2ncc3c(n2)N2CCN=C2N(c2c(Cl)cccc2Cl)C3=O)cc(F)c1N1C[C@@H](C)N(C)[C@@H](C)C1` [Example 5, 6-(2,6-dichlorophenyl)-2-((3-fluoro-5-methyl-4-((3S,5R)-3,4,5-trimethylpiperazin-1-yl)phenyl)amino)-8,9-dihydroimidazo[1,2-a]pyrimido[5,4-e]pyrimidin-5(6H)-one], for which the IC50 in assay [3] was found to be 124 nM; in assay [4], 182 nM.

Regarding `Cc1cc(Nc2ncc3c(n2)N2CCN=C2N(c2c(Cl)cccc2Cl)C3=O)ccc1N1C[C@H](C)N(C)[C@@H](C)C1` [Example 8, 6-(2,6-dichlorophenyl)-2-((3-methyl-4-((3S,5S)-3,4,5-trimethylpiperazin-1-yl)phenyl)amino)-8,9-dihydroimidazo[1,2-a]pyrimido[5,4-e]pyrimidin-5(6H)-one], the IC50 in assay [2] came to 30 nM; in assay [3], 163 nM; in assay [4], 214 nM.

On to `Cc1cc(Nc2ncc3c(n2)N2CCN=C2N(c2c(Cl)cccc2Cl)C3=O)ccc1C1CCNCC1` [Example 9, 6-(2,6-dichlorophenyl)-2-((3-methyl-4-(piperidin-4-yl)phenyl)amino)-8,9-dihydroimidazo[1,2-a]pyrimido[5,4-e]pyrimidin-5(6H)-one], for which the IC50 in assay [2] was found to be 23 nM; in assay [3], 533 nM; in assay [4] it was 940 nM.

As for `Cc1cc(Nc2ncc3c(n2)N2CCN=C2N(c2c(Cl)cccc2Cl)C3=O)ccc1C1CCN(C)CC1` [Example 12, 6-(2,6-dichlorophenyl)-2-((3-methyl-4-(1-methylpiperidin-4-yl)phenyl)amino)-8,9-dihydroimidazo[1,2-a]pyrimido[5,4-e]pyrimidin-5(6H)-one], the values for the IC50 in assay [2], in assay [3] and in assay [4] were 23 nM, 78 nM and 79 nM, respectively.

`Cc1cc(Nc2ncc3c(n2)N2CCN=C2N(c2c(Cl)cccc2Cl)C3=O)cc(F)c1C1CCN(C)CC1` [Example 13, 6-(2,6-dichlorophenyl)-2-((3-fluoro-5-methyl-4-(1-methylpiperidin-4-yl)phenyl)amino)-8,9-dihydroimidazo[1,2-a]pyrimido[5,4-e]pyrimidin-5(6H)-one]: the IC50 in assay [2] stood at 26 nM; in assay [3], 73 nM; in assay [4], 85 nM.
